Key:
[1] = Lipophilicity, log D of the compound at pH 7.4; format: physicochemical; details: buffer
Liver microsome = test: Intrinsic clearance in human liver microsomes; format: ADME

| Structure (SMILES) | logD [1] | CLint (Liver microsome) [µL/min/g] |
| --- | --- | --- |
| C=CC(=O)N1C[C@H](COc2nc(Nc3cnn(C)c3)nc3[nH]ccc23)[C@@H](C(F)(F)F)C1 | 2.7 | 26 |
| C=CC(=O)N1C[C@H](COC)[C@@H](COc2nc(Nc3cnn(C)c3)nc3[nH]cc(Cl)c23)C1 | 2.9 | 23 |
| C=CC(=O)N1C[C@H](CO)[C@@H](COc2nc(Nc3cnn(C)c3)nc3[nH]cc(Cl)c23)C1 | 2.3 | 13 |
| C=CC(=O)N1CC[C@@H](COc2nc(Nc3cnn(C)c3)nc3[nH]cc(Cl)c23)C1 | 2.91 | 45 |
| C=CC(=O)N1C[C@@H](COc2nc(Nc3cnn(C)c3)nc3[nH]cc(Cl)c23)[C@H](OC)C1 | 2.4 | 24 |
| C=CC(=O)N1CC[C@@H](COc2nc(Nc3cnn(C)c3)nc3[nH]ccc23)C1 | 2.1 | 56 |
| C=CC(=O)N1C[C@H](COc2nc(Nc3cnn(C)c3)nc3[nH]cc(Cl)c23)[C@@H](OC)C1 [PF-06459988] | 2.5 | 18 |

Results, then the molecule that gave them:

| logD [1] | CLint (Liver microsome) [µL/min/g] | Structure (SMILES) |
| --- | --- | --- |
| 2 | 12 | C=CC(=O)N1C[C@H](COc2nc(Nc3cnn(C)c3)nc3[nH]cc(Cl)c23)[C@@H](O)C1 |
| 3 | 11 | C=CC(=O)Nc1cccc(Oc2nc(Nc3ccn(C)n3)nc3[nH]ccc23)c1 |
| 3 | 37 | C=CC(=O)N1C[C@H](COc2nc(Nc3cnn(C)c3)nc3[nH]cc(Cl)c23)[C@@H](C(F)(F)F)C1 |
| 3 | – | C#CCCn1cc(Nc2nc(OC[C@H]3CN(C(=O)C=C)C[C@@H]3OC)c3c(Cl)c[nH]c3n2)cn1 |
| 3.2 | 66 | C=CC(=O)Nc1cccc(Oc2nc(Nc3cnn(C)c3)nc3[nH]ccc23)c1 |
| 2.7 | 28 | C=CC(=O)N1C[C@H](COc2nc(Nc3cnn(C)c3)nc3[nH]cc(Cl)c23)[C@@H](F)C1 |
| 4 | – | C#CCOc1cc2ncnc(Nc3ccc(F)c(Cl)c3)c2cc1NC(=O)C=C |
| 2.7 | 20 | C=CC(=O)Nc1cccc(Oc2nc(Nc3ccc(N4CCN(C)CC4)cc3)nc3[nH]ccc23)c1 |
